Paper PMC6753678, “Fueling Open Innovation for Malaria Transmission-Blocking Drugs: Hundreds of Molecules Targeting Early Parasite Mosquito Stages” (Frontiers in Microbiology, 2019)
Where two headings read alike, the source gives them in different places.

How the values were obtained:
[1] = system: HepG2 cells; settings: HepG2 value reported with Pf FGAA screen; ref Miguel-Blanco et al 2017; cited from earlier work
[2] = system: P. falciparum female gametocytes; parameters: method as in Miguel-Blanco et al 2017; settings: ref Miguel-Blanco et al 2017, read-out: Pf FGAA IC50, cited from earlier work
[3] = system: P. falciparum female gametocytes; assay: P. falciparum female gametogenesis assay (Pf FGAA); settings: 1: YES, 0: NO
[4] = system: HepG2 cells; assay: HepG2 cytotoxicity assay; settings: unified HepG2 cytotoxicity across the three screens
Procedure, shortened: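 Cells are plated at 2,500 per well on compound-treated plates in MEM containing 10% fetal bovine serum and 1% NEAA, then incubated 48 h at 37°C.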

[5] = >10-fold selectivity over cytotox

SMILES	HepG2 cytoxicity (Pf FGAA screen) [1]	IC50 ([2]; TCAMS library screen)	Is compound selective in assay? Pf FGAA active? [3]	Unified cytotox [4]	IC50 [2]	Is compound selective in assay? Pf FGAA active? [3, 5]
CCCC(=O)NC(c1ccc(C)cc1)c1ccc2cccnc2c1O (stereo not drawn) [TCMDC-123605]	9.22 µM	1730 nM	0 (0: NO)	–	–	–
Cc1ccc(-c2nc3cc(NC(=O)c4ccc([N+](=O)[O-])o4)ccc3o2)cc1Cl [TCMDC-123657]	1.72 µM	1350 nM	0 (0: NO)	–	–	–
Cc1ccnc(NC(c2ccc(Cl)c([N+](=O)[O-])c2)c2ccc3cccnc3c2O)c1 (stereo not drawn) [TCMDC-123691]	23.45 µM	1480 nM	1 (1: YES)	–	–	–
N#CC(c1ccc(Br)cc1)c1ccc2c(C(F)(F)F)cc(C(F)(F)F)nc2n1 (stereo not drawn) [TCMDC-123754]	2.32 µM	1160 nM	0 (0: NO)	–	–	–
FC(F)(F)c1cnc(Sc2nnc(-c3ccncc3)o2)c(Cl)c1 [TCMDC-123767]	>100 µM	160 nM	1 (1: YES)	–	–	–
OC1CCN(c2cc(-c3ccccn3)nc(-c3ccccn3)n2)CC1 [TCMDC-123786]	14.14 µM	1540 nM	0 (0: NO)	–	–	–
COc1ccc(-c2csc3ncnc(Cl)c23)cc1 [TCMDC-123805]	0.55 µM	1460 nM	0 (0: NO)	–	–	–
Clc1ccc(-c2csc3ncnc(Cl)c23)cc1 [TCMDC-123811]	94.46 µM	1570 nM	1 (1: YES)	–	–	–
O=C(Nc1nc(-c2ccccn2)cs1)c1ccc(Br)s1 [TCMDC-123868]	37.44 µM	1160 nM	1 (1: YES)	–	–	–
CCCC(=O)NC(c1ccc(C(C)C)cc1)c1ccc2cccnc2c1O (stereo not drawn) [TCMDC-123884]	>100 µM	1540 nM	1 (1: YES)	–	–	–
CCOc1ccc(-n2nc3c(Cl)nnc(-c4ccccc4)c3c2-c2ccccc2)cc1 [TCMDC-123899]	>100 µM	940 nM	1 (1: YES)	–	–	–
OCCN1CCN(c2ccc(Nc3ccnc4cc5ccccc5cc34)cc2)CC1 [TCMDC-123915]	5.43 µM	3340 nM	0 (0: NO)	–	–	–
CCc1cc2c(Sc3nnc(N)s3)ncnc2s1 [TCMDC-123993]	32.30 µM	730 nM	1 (1: YES)	–	–	–
Cc1cc(I)ccc1Nc1nc2nonc2nc1Nc1ccc(I)cc1C [TCMDC-124083]	0.93 µM	1080 nM	0 (0: NO)	–	–	–
FC(F)(F)c1cccc(Nc2nc3ccccc3nc2Nc2cccc(C(F)(F)F)c2)c1 [TCMDC-124162]	17.68 µM	2400 nM	0 (0: NO)	–	–	–
N=C(N)Nc1nc(-c2ccc(NCc3ccc(CNc4cccc(-c5csc(NC(=N)N)n5)c4)cc3)cc2)cs1 [TCMDC-140699]	–	–	–	4.79 µM	900 nM	0 (0: NO)
CN1CCC=C(C(=O)NCC(C)(C)c2nc(-c3ccc(Cl)c(O)c3)c(-c3ccncc3)[nH]2)C1.Cl [TCMDC-140700]	–	–	–	13.36 µM	1910 nM	0 (0: NO)
CCN(CC)CCN(Cc1ccc(-c2ccc(C(F)(F)F)cc2)cc1)C(=O)Cn1cc(Cc2cnn(C)c2)c(=O)nc1/C=C/c1ccc(F)cc1.O=C(O)C(O)C(O)C(=O)O [TCMDC-140741]	–	–	–	13.81 µM	1210 nM	1 (1: YES)
CN(C)CCOc1ccc(NC(=O)NC(C)(C)c2nc(-c3ccc(Cl)c(O)c3)c(-c3ccncc3)[nH]2)cc1.Cl [TCMDC-140744]	–	–	–	14.30 µM	730 nM	1 (1: YES)
CNCC(C)(C)c1nc(-c2ccc(Cl)c(O)c2)c(-c2ccncc2)[nH]1.Cl [TCMDC-140762]	–	–	–	13.52 µM	880 nM	1 (1: YES)
CC(C)(C)c1ccc(CNC(=O)/C=C/c2ccc(CNC3CCNCC3)cc2)cc1 [TCMDC-140773]	–	–	–	9.47 µM	1920 nM	0 (0: NO)
CC(C)(C)c1ccc(CNC(=O)c2cc(CNC3CCNCC3)ccc2O)cc1 [TCMDC-140775]	–	–	–	13.96 µM	2000 nM	0 (0: NO)

SMILES	HepG2 cytoxicity (Pf FGAA screen) [1]	IC50 ([2]; TCAMS library screen)	Is compound selective in assay? Pf FGAA active? [3]	Unified cytotox [4]	IC50 [2]	Is compound selective in assay? Pf FGAA active? [3, 5]
CC(C)(C)c1ccc(CNC(=O)c2ccc(CNC3CCC(N)CC3)s2)cc1 (stereo not drawn) [TCMDC-140777]	–	–	–	8.95 µM	2440 nM	0 (0: NO)
CC(C)(CNC(=O)[C@H]1CCCN1)c1nc(-c2ccc(Cl)c(O)c2)c(-c2ccncc2)[nH]1.Cl [TCMDC-141060]	–	–	–	32.74 µM	1210 nM	1 (1: YES)
CC(C)(CNC(=O)[C@@H]1CCCCN1)c1nc(-c2ccc(Cl)c(O)c2)c(-c2ccncc2)[nH]1.Cl [TCMDC-141079]	–	–	–	38.91 µM	1580 nM	1 (1: YES)
CC1(CCN2CCC(c3c[nH]c4cnccc34)CC2)CCCc2c(Br)cccc2C1=O.Cl (stereo not drawn) [TCMDC-141171]	–	–	–	5.25 µM	1730 nM	0 (0: NO)
CN1CCN(c2ccc(Nc3ncc([N+](=O)[O-])c(Nc4ccccc4O)n3)cc2)CC1.O=C(O)C(F)(F)F [TCMDC-141372]	–	–	–	1.82 µM	2010 nM	0 (0: NO)
O=C(CCC1CCCC1)N(Cc1ccc(-c2ccc(CNCCc3ccccc3)cc2)cc1)C1CCCNC1.O=C(O)C(F)(F)F (stereo not drawn) [TCMDC-141444]	–	–	–	5.19 µM	1980 nM	0 (0: NO)
CN1CCCC1CCNc1ncc2c(-c3ccc(NC(=O)Nc4cc(C(F)(F)F)ccc4F)c(F)c3)nn(C)c2n1.O=C(O)C(F)(F)F (stereo not drawn) [TCMDC-141610]	–	–	–	4.62 µM	1470 nM	0 (0: NO)
CN1CCN(CCCNc2ncc3c(-c4ccc(NC(=O)Nc5cc(C(F)(F)F)ccc5F)c(F)c4)nn(C)c3n2)CC1.O=C(O)C(F)(F)F [TCMDC-141611]	–	–	–	4.90 µM	870 nM	0 (0: NO)
Cc1ccc(Cn2nc(Cl)c(N3CCCNCC3)cc2=O)cc1NC(=O)Nc1ccc(-c2ccccc2)cc1.O=C(O)C(F)(F)F [TCMDC-141697]	–	–	–	7.25 µM	990 nM	0 (0: NO)
Cc1ccc(Cn2nc(Cl)c(N3CCNCC3)cc2=O)cc1NC(=O)Nc1ccc(-c2ccccc2)cc1.O=C(O)C(F)(F)F [TCMDC-141698]	–	–	–	4.79 µM	440 nM	1 (1: YES)
Cc1c(Cn2nc(Cl)c(N3CCNCC3)cc2=O)cccc1NC(=O)Nc1ccc(-c2ccccc2)cc1.O=C(O)C(F)(F)F [TCMDC-141699]	–	–	–	4.22 µM	4910 nM	0 (0: NO)
Cl.O=S(=O)(Nc1cc2c(cc1OCCCN1CCCCC1)CCNCC2)c1ccc(-c2ccc(Cl)cc2)cc1 [TCMDC-141753]	–	–	–	4.37 µM	2000 nM	0 (0: NO)
CN1CCc2cc(NS(=O)(=O)c3ccc(-c4ccc(Cl)cc4)cc3)c(OCCCN3CCCCC3)cc2CC1.Cl [TCMDC-141754]	–	–	–	2.23 µM	970 nM	0 (0: NO)
Cc1ccc(Cn2ncc(N3CCCNCC3)c(Cl)c2=O)cc1NC(=O)Nc1ccc(-c2ccccc2)cc1 [TCMDC-141924]	–	–	–	7.86 µM	1730 nM	0 (0: NO)
Nc1nc(N)c2cc(NC(=O)c3ccc(Cl)c(Cl)c3)ccc2n1 [TCMDC-141982]	–	–	–	2.14 µM	1590 nM	0 (0: NO)
Cl.OC(CNCCCCCCNCC(O)c1ccc(Cl)c(Cl)c1)c1ccc(Cl)c(Cl)c1 (stereo not drawn) [TCMDC-141987]	–	–	–	4.27 µM	900 nM	0 (0: NO)
Cl.N=C1C=C(N)C(=O)c2ccccc21 [TCMDC-141992]	–	–	–	0.52 µM	11900 nM	0 (0: NO)
CCn1c2ccccc2c2cc(C=NN=c3cc(C)[nH]c4ccccc34)ccc21 [TCMDC-142186]	–	–	–	5.82 µM	4150 nM	0 (0: NO)
CCOc1ccc2c(=NN=Cc3cc(OC)c(OC)cc3OC)cc(C)[nH]c2c1 [TCMDC-142207]	–	–	–	12.17 µM	1220 nM	0 (0: NO)
Cc1c(N=O)cc(C(C)(C)C)c(O)c1C(=O)Nc1ccc([N+](=O)[O-])cc1Cl [TCMDC-142233]	–	–	–	1.78 µM	1170 nM	0 (0: NO)
CN(C)CCN1CCN(CCCN2c3ccccc3Sc3ccc(C(F)(F)F)cc32)CC1.Cl [TCMDC-142257]	–	–	–	77.62 µM	5250 nM	1 (1: YES)
